Reference: patent US20100168087A1, “BENZO[1,2,3]THIADIAZINE DERIVATES” (priority 2006, published 2010)

Test system: not given
Assay: not given
Conditions: not given

Row | Compound | melting point
1 | COc1ccc2c(c1)C=NN(C)S2(=O)=O [Example 22, 2-Methyl-6-methoxybenzo[1,2,3]thiadiazine-1,1-dioxide] | 99 to 101 °C
2 | COc1ccc2c(c1Cl)S(=O)(=O)N(C)N=C2C [Example 25, 8-chloro-7-methoxy-2,4-dimethylbenzo[1,2,3]thiadiazine-1,1-dioxide] | 151 to 152 °C
3 | O=S1(=O)NN=Cc2ccc(Cl)cc21 [Example 15, 7-chlorobenzo[1,2,3]thiadiazine-1,1-dioxide] | 221 to 223 °C
4 | COc1ccc2c(c1)S(=O)(=O)NN=C2C [Example 14, 4-Methyl-7-methoxybenzo[1,2,3]thiadiazine-1,1-dioxide] | 174 to 176 °C
5 | CN1N=Cc2ccccc2S1(=O)=O [Example 23, 2-Methylbenzo[1,2,3]thiadiazine-1,1-dioxide] | 79 to 80 °C
6 | CC1=NN(C)S(=O)(=O)c2c(Cl)c(Cl)cc(C)c21 [Example 24, 7,8-Dichloro-2,4,5-trimethylbenzo[1,2,3]thiadiazine-1,1-dioxide] | 166 to 168 °C
7 | COc1ccc2c(c1OC)S(=O)(=O)NN=C2C [Example 9, 7,8-Dimethoxy-4-methylbenzo[1,2,3]thiadiazine-1,1-dioxide] | 238 to 240 °C
8 | CC1=NNS(=O)(=O)c2c(Cl)cccc21 [Example 6, 8-chloro-4-methylbenzo[1,2,3]thiadiazine-1,1-dioxide] | 206 to 207 °C
9 | CCC1=NN(C)S(=O)(=O)c2c1ccc(Cl)c2Cl [Example 18, 7,8-Dichloro-4-ethyl-2-methylbenzo[1,2,3]thiadiazine-1,1-dioxide] | 119 to 120 °C
10 | CCC1=NN(CC)S(=O)(=O)c2c1ccc(Cl)c2Cl [Example 19, 2,4-Diethyl-7,8-dichlorobenzo[1,2,3]thiadiazine-1,1-dioxide] | 79 to 82 °C
11 | CN1N=Cc2ccc(Cl)cc2S1(=O)=O [Example 21, 7-chloro-2-methylbenzo[1,2,3]thiadiazine-1,1-dioxide] | 131 to 133 °C
12 | CN1N=Cc2ccc(Cl)c(Cl)c2S1(=O)=O [Example 20, 7,8-Dichloro-2-methylbenzo[1,2,3]thiadiazine-1,1-dioxide] | 120 to 121 °C
13 | O=S1(=O)NN=Cc2ccc(Cl)c(Cl)c21 [Example 11, 7,8-Dichlorobenzo[1,2,3]thiadiazine-1,1-dioxide] | 183 to 185 °C
14 | COc1ccc2c(c1)C=NNS2(=O)=O [Example 12, 6-Methoxybenzo[1,2,3]thiadiazine-1,1-dioxide] | 163 to 164 °C
15 | CCC1=NNS(=O)(=O)c2cc(Cl)ccc21 [Example 2, 4-Ethyl-7-chlorobenzo[1,2,3]thiadiazine-1,1-dioxide] | 196 to 198 °C
16 | CC1=NNS(=O)(=O)c2cc(Cl)ccc21 [Example 1, 7-chloro-4-methylbenzo[1,2,3]thiadiazine-1,1-dioxide] | 187 to 189 °C
17 | CC1=NNS(=O)(=O)c2ccccc21 [Example 13, 4-Methylbenzo[1,2,3]thiadiazine-1,1-dioxide] | 183 to 185 °C
18 | CC1=NNS(=O)(=O)c2c1cc(C)c(Cl)c2Cl [Example 10, 7,8-Dichloro-4,6-dimethylbenzo[1,2,3]thiadiazine-1,1-dioxide] | 224 to 226 °C
19 | COc1cccc2c1S(=O)(=O)NN=C2C [Example 8, 4-Methyl-8-methoxybenzo[1,2,3]thiadiazine-1,1-dioxide] | 194 to 197 °C
20 | COc1ccc2c(c1Cl)S(=O)(=O)NN=C2C [Example 7, 8-chloro-4-methyl-7-methoxybenzo[1,2,3]thiadiazine-1,1-dioxide] | 227 to 229 °C
21 | CC1=NN(C)S(=O)(=O)c2c1cc(C)c(Cl)c2Cl [Example 26, 7,8-Dichloro-2,4,6-trimethylbenzo[1,2,3]thiadiazine-1,1-dioxide] | 179 to 180 °C
22 | CCC1=NNS(=O)(=O)c2c1ccc(Cl)c2Cl [Example 4, 7,8-Dichloro-4-ethylbenzo[1,2,3]thiadiazine-1,1-dioxide] | 238 to 239 °C
23 | COc1ccc2c(c1Cl)S(=O)(=O)N(C)N=C2 [Example 28, 8-chloro-2-methyl-7-methoxybenzo[1,2,3]thiadiazine-1,1-dioxide] | 173 to 175 °C

Test system: male Sprague-Dawley rats
Assay: elevated maze test in the rat
Assay type: in vivo
Conditions: per os, 60-min pretreatment, 5-min measurement, time spent in the open arms and number of entries into the open arms
Procedure: Pharmacological activity of the compounds of the general Formula (I) has been evaluated in elevated maze test in the rat.
The tests were carried out according to the method of S. Pellow and coworkers (J. Neurosci. Methods. 1985, 14, 149-167). During the test, a wooden-floor cross elevated by 50 cm from the floor was used. The length and the width of the arms of the cross were 100 and 15 cm, respectively. Two opposite arms of the cross are fitted at the ends and both sides with black plexyglass wall of 40 cm height (closed arms).
The central section of the cross measuring 15 by 15 cm is open. The other two opposite arms of the cross are not provided with walls (open arms).
The tests were carried out in male Sprague-Dawley rats weighing 200 to 220 g. After the 60-min pretreatment time (per os treatment), the animal was placed in the center of the maze. During the 5-min measurement time, four variables were recorded: the time spent in the open arms; the time spent in the closed arms; the number of entries into the open arms; the number of entries into the closed arms.
Animals normally avoid the open and light parts of the maze, thereby spending little time therein only. The anxiolytic effect of the compounds of the general Formula (I) is indicated by the increase in the time spent (in seconds) in the open arms and/or by the increase in the number of the entries into the open compartments of the maze. The minimum effective dose (MED) was determined for each tested compounds regarding the time spent in the open arms and the number of entries into the open arms. During the test, the known anxiolytic compound 1-methyl-5-phenyl-7-chloro-1,3-dihydro-2H-1,4-benzodiazepin-2-one (INN: diazepam) of the Formula (IV)
was used. Treatment of the animals was carried out orally with the doses 0.1, 0.3, 1.0, 3.0 for diazepam and 0.01, 0.1, 1.0 mg/kg for the compounds of the general Formula (I).

Row | Compound | MED (minimum effective dose), anxiolytic effect in elevated maze test
24 | CC1=NNS(=O)(=O)c2c1ccc(Cl)c2Cl [Example 3, 7,8-Dichloro-4-methylbenzo[1,2,3]tiadiazine-1,1-dioxide] | ≦0.01 mg/kg p.o.
25 | CN1N=Cc2ccc(Cl)c(Cl)c2S1(=O)=O [Example 20, 7,8-Dichloro-2-methylbenzo[1,2,3]thiadiazine-1,1-dioxide] | ≦0.01 mg/kg p.o.
26 | CC1=NNS(=O)(=O)c2c(Cl)c(Cl)cc(C)c21 [Example 5, 7,8-Dichloro-4,5-dimethylbenzo[1,2,3]thiadiazine-1,1-dioxide] | ≦0.01 mg/kg p.o.
27 | CN1C(=O)CN=C(c2ccccc2)c2cc(Cl)ccc21 [Diazepam, 1-methyl-5-phenyl-7-chloro-1,3-dihydro-2H-1,4-benzodiazepin-2-one, reference compound] | 1.00 mg/kg p.o.
